Columns and labels:
Penicillium digitatum [1] = test: Natural infection of orange and lemon fruit, semi-commercial on line spray treatment; type: in vivo; conditions: line spray within 48 hours after harvest, 50-55° F., after 3 weeks
Excerpt: Additional tests were also done to determine the effect of different combinations of biochemicals and microorganisms on natural infections of citrus fruit. Orange and lemon fruit from field bins were washed on line following standard commercial practices [Standard Pre Chlorine was (50 ppm); size and color blemish sorting, and randomized]. Thereafter the fruit was washed and treated with either water, a yeast cell suspension containing 0.1% lysozyme, or Imazalil using an on line spray system. Each treatment consisted of at least 8 to 13 boxes of fruit; each box representing a replicate of approximately 60 to 100 fruit. The fruit was held at 50-55° F. and the percentage of decay was determined after 3 weeks.

Botrytis cinerea = test: Inhibition of spore germination in 24-well microtiter dish; type: cell-based; conditions: for Inhibition of Germination (%) Botrytis cinerea: five hundred spores per well, 0.2% maltose extract broth, 24° C., after 24 hours
Procedure: The inhibitory activity of antifungal enzymes, in this example, lysozyme and lyticase, against the pathogen Botrytis cinerea, was determined in a 24-well microtiter dish. Autoclaved solutions of 0.2% maltose extract broth were amended with membrane-sterilized solutions of lysozyme and lyticase to obtain a concentration of 0.1% and 0.5% of lysozyme and lyticase, respectively. One hundred microliters of the enzyme solution was dispensed into each well. Each well was inoculated with five hundred spores of B. cinerea. Four replicates of eight wells were used for each treatment. Microtiter dishes were incubated in the dark at 24° C. Percent spore germination was determined after 24 hours. Spores were inhibited by either enzyme.

Candida saitoana = test: Survival of Candida saitoana in enzyme solutions (yeast maltose broth); type: cell-based; conditions: for Yeast Cell Counts (CFU/ml) 1 day / Yeast Cell Counts (CFU/ml) 4 days: inoculated with 10^4 yeast cells/ml, yeast maltose broth
Procedure: The effect of lysozyme and lyticase on the survival of C. saitoana in yeast maltose broth was also determined. Culture flasks containing sterile solutions of 0.2% yeast maltose broth were amended with membrane-sterilized solutions of lysozyme and lyticase to obtain a concentration of 0.1% and 0.6% of lysozyme and lyticase, respectively. Each flask was started with approximately 10^4 colony forming units (CFU) of yeast and the flasks were incubated on an orbital shaker set at 200 rpm. Samples were collected and dilution-plated in duplicate on yeast-maltose agar medium. The plates were incubated 24° C. and colonies were counted after 48 h.

Penicillium digitatum [2] = test: Protective effect on decay of wounded orange and lemon fruit, treated then challenge inoculated; type: in vivo; conditions: wounds treated then inoculated with 20 μL P. digitatum 10^4 conidia/ml, 7 days at 24° C.
Procedure: (§1) Yeast cells from 48 hour old cultures of C. saitoana were pelleted by centrifugation, resuspended in sterile distilled water, and centrifuged. Pellets were suspended in water, 0.01% and 0.1% lysozyme of 0.6% lyticase, and the concentration of the yeast suspension was adjusted to 10^8 CFU/ml.
(§2) Apple, orange, and lemon fruit were individually wounded and each wound was treated with fifty microliters of one of the following treatments:
yeast cell suspension (C. saitoana);
yeast cell suspension containing 0.01% or 0.1% lysozyme;
yeast cell suspension containing 0.6% lyticase;
(§3) Fruit wounds were either treated with the different treatments and then inoculated with 20 μL of a pathogen spore suspension to determine protective effects, or inoculated with a pathogen spore suspension and 24 hours later were treated with the different treatments to determine curative effects. Apple wounds were inoculated (i.e., pathogens were placed in the wound) with the pathogens B. cinerea and P. expansum, whereas orange and lemon wounds were inoculated with P. digitatum. Treated fruit were incubated at 24° C. in plastic trays at high humidity. For each treatment, 20 to 100 fruit were arranged in a randomized complete block design. Percent infection was determined for each treatment after 7 days of storage. The tests were repeated twice. […] The effect was greater than for either agent alone.

P. expansum = test: Curative effect on established infection of apple fruit (treated 24 hours after inoculation); type: in vivo, Penicillium expansum; conditions: treatment 24 hours after inoculation
Procedure: as §1, §2, §3
(§4) In the past, the lack of curative activity has been identified as a major limitation of biological approaches to pathogen control.

P. digitatum = test: Curative effect on established infection of citrus fruit (treated 24 hours after inoculation); type: in vivo, Penicillium digitatum; conditions: treatment 24 hours after inoculation
Procedure: as §1, §2, §3, §4

Compound	Infected Fruit (%) Penicillium digitatum Lemon (Penicillium digitatum [1]; lemon) [b %]	Infected Fruit (%) Penicillium digitatum Orange (Penicillium digitatum [1]; orange) [b %]	Inhibitory activity against Botrytis cinerea spores (in words) (Botrytis cinerea)	Inhibition of Germination (%) Botrytis cinerea (Botrytis cinerea) [%]	Effect on growth / survival of the yeast C. saitoana (in words) (Candida saitoana)	Yeast Cell Counts (CFU/ml) 1 day (Candida saitoana)	Yeast Cell Counts (CFU/ml) 4 days (Candida saitoana)	Infected Fruit (%) Penicillium digitatum Lemon (Penicillium digitatum [2]) [b %]	Infected Fruit (%) Penicillium digitatum Orange (Penicillium digitatum [2]) [%]	Infected Fruit (%) Penicillium digitatum Orange (Penicillium digitatum [2]; listed as 0.1% lyticase) [b %]	Effect on established infection caused by P. expansum (in words) (P. expansum)	Effect on established infection caused by P. digitatum (in words) (P. digitatum)	Infected Fruit (%) Penicillium digitatum Orange (Penicillium digitatum [2]; listed as 0.01% lysozyme) [b %]
C=CCOC(Cn1ccnc1)c1ccc(Cl)cc1Cl (stereo not shown) [Imazalil]	4.6	2.4	–	–	–	–	–	–	–	–	–	–	–
lyticase	–	–	inhibitory	100	no effect	>2.0 × 10^5 CFU/ml	>2.0 × 10^5 CFU/ml	85	88	88	little effect	little effect	–
lysozyme	–	–	inhibitory	100	no effect	>2.0 × 10^5 CFU/ml	>2.0 × 10^5 CFU/ml	86	88	–	little effect	little effect	88

From patent US6419922B1, “Candida saitoana compositions for biocontrol of plant postharvest decay” (Biotechnology Research and Development Corporation, priority 1998, dated 2002)
